In patent US20090162351A1, “Transdiscal administration of inhibitors of p38 MAP kinase” (DePuy Spine, Inc., priority 2007, published 2009):

Tests used:
Assay type in all cases: cell-based
[1] = tested on: bovine chondrocyte pellets / ARC tissues stimulated with IL-1β; experiment: Chondrocyte pellet / ARC culture model: GAG degradation assay; conditions: Table 3B
Description: A chondrocyte pellet culture model was developed for in vitro high throughput screening of therapeutic compounds for inhibition of IL-1β-stimulated matrix degradation. The chondrocyte pellet culture model can be used to detect various potential therapeutic compounds effective in blocking different processes caused by IL-1β stimulation. For example, IL-1β stimulation results in increased glycosaminoglycan (GAG) degradation, prostaglandin E2 (PGE2) synthesis and total nitrite/nitrate production. Compounds with different mechanisms of action may inhibit the increase of one or two or all three of these parameters. For this reason, screening by, for example, measuring only GAG release would be limited to detection of a specific class of inhibitors and may not detect compounds with diversified mechanisms of function which may be involved in inhibition of the IL-1 stimulated inflammatory process. The development of the chondrocyte pellet culture assay system in a 96-well plate made possible large-scale screening of potential therapeutic compounds with different mechanisms of action.
(§1) Calf articular cartilage was obtained from the knee joints of eight to twelve month old animals and was processed within twenty-four hours after sacrifice. After removal of muscle and ligament, the cartilage was kept moist using phosphate buffer solution (PBS) to prevent tissue dehydration, and was aseptically peeled off from subchondral bone with a scalpel, and the cartilage pieces were further minced into smaller pieces (˜0.3-0.5×˜0.2-0.5 cm cubes). […] Chondrocytes were then enzymatically isolated from the tissue by incubation for overnight at 37° C. with gentle agitation in 0.2% collagenase in Dulbecco's modified eagle media (DMEM). After removal of tissue debris by filtration through cell strainer and the residual collagenase by 3× wash in PBS, cells were finally resuspended at a density of 2.5×10^6 cells/ml in chondrocyte medium. A 1 ml aliquot of the cell suspension was dispensed into either a 15 ml Falcon centrifuge tube or a 96 deep-well plate and centrifuged at 2000×g for five minutes. The chondrocyte pellets were incubated at 37° C. in a humidified atmosphere of 5% CO2 for two to three weeks with a medium change every other day.
(§2) As an alternative to using calf articular cartilage, a commercial Aliginate Recovered Chondrocytes (ARC) system was also used (Articular Engineering, LLC (Northbrook, Ill.)). Use of the commercial system cut down on labor and time in producing chondrocyte pellet. This system produced cartilaginous tissue in vitro using bovine chondrocytes. The first step consisted of culturing chondrocytes in alginate under conditions optimal for the formation of a cell-associated matrix (CM). The second step allowed these cells with their CM, after recovery, to rapidly form and become integrated into a solid mass of cartilage on a porous insert within two weeks.
This tissue is rich in cells surrounded by a cell-associated matrix that is degraded rapidly when the cells are exposed to IL-1. ARC tissues in 3 mm punches at delivery were first dispensed into a 96 deep-well plate, one punch per well, for compound treatment. The subsequent procedures were the same as those used for the chondrocyte pellets.
(§3) Chondrocyte pellets were washed once with 1 ml of Chondrocyte Stimulation Medium and equilibrated in the same medium at room temperature for fifteen to thirty minutes. Compounds were dissolved in H2O, Ethanol or dimethyl sulfoxide (DMSO) (10^−2 M) according to suppliers' instructions and further diluted with Chondrocyte Stimulation Medium to the required concentrations. DMSO concentrations in the culture media should not exceed 1%; this concentration of DMSO has no effect on cartilage proteoglycan metabolism in response to cytokines.
The pellets were first treated with compounds at desired concentrations at 37° C. for one hour and then incubated for three to five days in the absence or presence of 10 ng/ml of IL-1β. […]

[2] = tested on: IL-1β-stimulated NO production in bovine chondrocyte pellets / ARC tissues; experiment: Chondrocyte pellet / ARC culture model: total nitrite and nitrate assay; conditions: Table 3B
Description: as §1, §2, §3
(§4) The pellets were first treated with compounds at desired concentrations at 37° C. for one hour and then incubated for three to five days in the absence or presence of 10 ng/ml of IL-1β. At the end of the incubation, media and pellets were harvested and frozen for further analysis. Pellets were also fixed as needed in 4% (w/v) paraformaldehyde in PBS for histology analysis.
Nitrate/Nitrite levels were measured using the Griess reaction (Green L. C. et al., “Analysis of Nitrate, Nitrite, and [15N]nitrate in Biological Fluids,” Anal. Biochem. 126: 131-138 (1982)) with a Nitrate/Nitrite Colorimetric Assay Kit (Cayman Chemicals), the contents of which are incorporated herein by reference. The assay involved a simple two-step process. The first step involved conversion of nitrate in 50 μl of culture medium to nitrite utilizing nitrate reductase in a reaction volume of 100 μl at room temperature for two hours. The second step involved the addition of 50 μl of both Griess Reagent 1 and 2, which converted nitrite into a deep purple azo compound in ten minutes. Photometric measurement of the absorbance at 540 or 550 nm due to this azo chromophore accurately determined nitrite concentration. This assay kit cannot be used for RPMI (Roswell Park Memorial Institute) derived tissue culture medium due to interference with the colorimetric reaction.
(§5) To characterize the relative efficacies among different p38 MAP kinase inhibitors, dose-response curves were generated for both PGE2 and NO assays. […] After one hour of treatment, ARCs were stimulated with or without 7.5 ng/ml IL-1β and continued to incubate for five days before assay. […]

[3] = tested on: IL-1β-stimulated PGE2 synthesis in bovine chondrocyte pellets / ARC tissues; experiment: Chondrocyte pellet / ARC culture model: Prostaglandin E2 assay; conditions: Table 3B
Description: as §1, §2, §3, §4
Prostaglandin E2 (PGE2) was measured with a STAT-Prostaglandin E2 EIA ELISA kit (Cayman Biochemicals). This assay is based on the competition between PGE2 from 50 μl samples and a PGE2-alkaline phosphatase conjugate for a limited amount of PGE2 monoclonal antibody in a reaction volume of 150 μl at room temperature for one hour. The antibody-PGE2 complex bound to a goat polyclonal anti-mouse IgG that had been previously attached to the well. After washing to remove any unbound reagents, para-nitrophenyl phosphate (pNPP) was added to the well. The product of this enzymatic reaction absorbs strongly at 412 nm. Because of the large range in response to IL-1β and other cytokines, PGE2 values were converted to log scale prior to doing t-tests.
as §5, with “assay. The IL-1β-stimulated PGE2 synthesis or NO production was first calculated by subtraction of PGE2/NO levels in the absence of IL-1β from that in the presence of IL-1β.” for “assay.”

[4] = tested on: injured bovine articular cartilage explants in inflammatory medium; experiment: Drop tower model: GAG degradation in injured cartilage explants; conditions: for inhibition at 10 µM: Bos taurus, injured cartilage explants
Description: In order to assess cartilage breakdown by inflammatory mediators and the effect of antagonists on those mediators, a cartilage impact model (the “drop tower model”) was established using a drop tower device to apply a peak compressive stress to a cartilage sample of about 20-30 MPa over an area of about 11-15 mm^2. Advantages of this model included its clinical relevance due to its potential to mimic several key parameters of osteoarthritis such as inflammatory cell mediators (by co-culturing with inflammatory cells), and induction of trauma to create the cartilage damage.
In the “drop tower design model” cartilage explants were first injured and then cultured in inflammatory medium to mimic the progression of joint impact trauma linked to cartilage degeneration and osteoarthritis. The approach of the model is to artificially produce cellular damage without gross structural alterations, and to determine how the cells respond to such an insult over the ensuing days when treated with or without potential therapeutic agents.
The device comprises a vertical rail that guides a sliding weight from 0.1 kg to 3 kg directly onto a force transducer which is situated at the bottom of the device. A sphere-shaped 2 mm indenter resting on a specimen is located at the bottom of the vertical rail. The indenter is held by a stop screw. The specimen is rigidly attached to a tissue holder underneath the indenter, to avoid side movements, the specimen is rigidly attached to the tissue holder. In this manner, the force transducer transduces a force indirectly onto the specimen. Adjusting the weight of a mass and height from which the mass drops varies the magnitude of the intended impact. For example, a weight mass (e.g., […]) held by a weight holder can be released from a height of e.g., 36 cm and dropped onto the force transducer.
Samples for compound evaluation were tested using either of two different methods to induce inflammatory conditions. One method utilized media conditioned from peripheral blood mononuclear cells (PBMCs) stimulated with LPS (“+LPS”) or non-inflammatory media without LPS (“−LPS”). Another method utilized the absence or presence of a cocktail of cytokines.
In the first method, bovine or human PBMCs were freshly prepared using Ficoll gradient by Lampire Biological Laboratories, Inc. PBMCs in RPMI w/10% FCS at delivery were spun down at 1500 rpm for twenty minutes and the cell pellet was washed twice with 1×PBS to wash off the residual Ficoll. The cells were then resuspended at a density of 1×10^6/ml in RPMI supplemented with 10% FCS, 1× Antibiotics-Antimycotics. The suspension was divided into two aliquots. One aliquot was stimulated with 10 μg/ml of LPS and the other was not stimulated. Both aliquots were then incubated at 37° C., 5% CO2 for twenty-four to seventy-two hours. The conditioned media with or without LPS stimulation are collected, aliquoted, and stored in −80° C. for a maximum of three months. Each conditioned medium was assessed for levels of pro-inflammatory cytokines to ensure their secretion from PBMC. A representative cytokine, IL-6, was assayed by ELISA using a Human IL-6 Quantikine kit and it was shown that the LPS-stimulated medium had at least 10 ng/ml of IL-6, while IL-6 was undetectable in the unstimulated medium.
In the second method, the explants were cultured at 37° C., 5% CO2 either in stimulated or non-stimulated conditioned medium as described above or in defined medium containing DMEM supplemented with 1% FCS, 1× insulin-transferrin-sodium selenite media supplement and Antibiotics-Antimycotics in the presence or absence of a cocktail of cytokines containing 10 ng/ml of IL-1β, 100 ng/ml of TNFα and 5 ng/ml of IFN-γ. The compounds were solubilized in H2O, Ethanol or DMSO (10^−2 M) according to suppliers' instructions and further diluted with either conditioned medium stimulated with or without LPS to the required concentrations. DMSO concentrations in the culture media never exceeded 1%. […]

[5] = tested on: PGE2 synthesis in injured bovine cartilage explants; experiment: Drop tower model: PGE2 synthesis in injured cartilage explants
Protocol: (§6) In the second method, the explants were cultured at 37° C., 5% CO2 either in stimulated or non-stimulated conditioned medium as described above or in defined medium containing DMEM supplemented with 1% FCS, 1× insulin-transferrin-sodium selenite media supplement and Antibiotics-Antimycotics in the presence or absence of a cocktail of cytokines containing 10 ng/ml of IL-1β, 100 ng/ml of TNFα and 5 ng/ml of IFN-γ. The compounds were solubilized in H2O, Ethanol or DMSO (10^−2 M) according to suppliers' instructions and further diluted with either conditioned medium stimulated with or without LPS to the required concentrations. DMSO concentrations in the culture media never exceeded 1%. This concentration of DMSO has no effect on cartilage proteoglycan metabolism in response to cytokines. The injured and noninjured cartilage explants were treated with compound-containing medium for three to five days. The specimens were first treated with compounds at desired concentrations at 37° C. for one hour and then incubated for three to five days in the absence or presence of the cocktail of cytokines. At the end of the incubation, media and cartilage samples were harvested and frozen for further analysis.
PGE2 was measured with STAT-Prostaglandin E2 EIA ELISA kit (Cayman Biochemicals), as described in Example III above. The antibody-PGE2 complex binds to a goat polyclonal anti-mouse IgG that has been previously attached to the well. After washing to remove any unbound reagents, para-nitrophenyl phosphate (pNPP) was added to the well. The product of this enzymatic reaction absorbs strongly at 412 nm. Because of the large range in response to IL-1β and other cytokines, PGE2 values were converted to log scale prior to doing t-tests.

[6] = tested on: NO production in injured bovine cartilage explants; experiment: Drop tower model: NO production in injured cartilage explants; conditions: Bos taurus; at 10 μM; injured cartilage explants
Protocol: as §6
Nitrate/Nitrite was measured using the Griess reaction (Green L. C. et al., “Analysis of Nitrate, Nitrite, and [15N]nitrate in Biological Fluids,” Anal. Biochem. 126: 131-138 (1982)) with a Nitrate/Nitrite Colorimetric Assay Kit (Cayman Chemicals), as described in Example III above.

| Compound | GAG Release, Pellet Assay (in words) [1] | NO Inhibition, Pellet Assay (in words) [2] | PGE2 Inhibition, Pellet Assay (in words) [3] | Inhibition of GAG degradation (in words) ([4]; Table 4, injured cartilage explants, inflammatory conditions) | PGE2 synthesis (in words) ([5]; 10 μM, cocktail of cytokines (IL-1β, TNF-α, INF-γ), five days) | Inhibition of PGE2 synthesis (in words) ([5]; Table 4) | inhibition at 10 µM [4] [%] | inhibition at 10 µM [6] [%] |
| --- | --- | --- | --- | --- | --- | --- | --- | --- |
| CC1(C)O[C@@H]2[C@@H](CO[C@@]3(COS(N)(=O)=O)OC(C)(C)O[C@@H]23)O1 [Topramax, reference compound] | No effect | No effect | No effect |  |  |  |  |  |
| CN1C(C(=O)Nc2ccccn2)=C(O)c2ccccc2S1(=O)=O [Proxicam, reference compound] | No effect |  |  | No effect |  |  |  |  |
| CNC(=O)[C@H](Cc1ccccc1)NC(=O)[C@H](CC(C)C)[C@H](CSc1cccs1)C(=O)NO [Batimastat, reference compound] |  |  |  |  | did not inhibit | No effect | 100 | 100 |
| CC(C(=O)O)c1ccc(C(=O)c2ccccc2)s1 (centres unmarked) [Tiaprofenic Acid, reference compound] | No effect |  |  |  |  |  | 70 |  |
| C[C@H]1[C@H](C)CC[C@]2(C(=O)O[C@@H]3O[C@H](CO[C@@H]4O[C@H](CO)[C@@H](O[C@@H]5O[C@@H](C)[C@H](O)[C@@H](O)[C@H]5O)[C@H](O)[C@H]4O)[C@@H](O)[C@H](O)[C@H]3O)CC[C@]3(C)C(=CC[C@@H]4[C@@]5(C)C[C@@H](O)[C@H](O)[C@@](C)(CO)[C@@H]5[C@H](O)C[C@]43C)[C@H]12 [Madecassoside, reference compound] | No effect | No effect | No effect |  |  |  |  |  |
